Like-named read-outs stand apart in the source and are kept apart here.
Key:
[1] = target: CDK1/A2 (Homo sapiens (Human), UniProt P06493); test: CDKs inhibition assay (ADP-Glo Kinase Assay), CDK1; settings: read-out: IC50 (nM) CDK1/A2
Protocol: (2) Preparation of Test Compound:
(§4) a. Test compounds at a certain concentration were taken respectively, and diluted with kinase reaction buffer I to compound solutions with a final concentration of 50 μM;
(§5) 4. Preparation of reaction substrate and ATP mixed solution:
a. Preparation of ATP solution:
(§6) 200 μl of 0.1 mM ATP solution: 2 μl of 10 mM ATP was added into 198 μl kinase reaction buffer I;
(§7) 300 μl of 50 μl M ATP solution: 150 μl kinase reaction buffer I was added into 150 μl of above-mentioned 0.1 mM ATP solution;
(§8) b. Preparation of 300 μl reaction substrate solution:
(§9) 150 μl of 1 μg/μl reaction substrate stock solution was added into 150 μl kinase reaction buffer I and uniformly mixed;
(§10) c. Above-mentioned a/b solutions were mixed to obtain mixed solutions respectively.
(§11) 2 μl compound solution at each concentration was added into a 384-well plate respectively, and centrifuged for 3 min;
(§12) 4 μl kinase solution was added into each well, centrifuged at 5000 rpm for 10 min at 18° C., and shaked well for 10 min on a shaker;
(§13) 4 μl substrate and ATP mixed solution were added into each well, centrifuged at 5000 rpm for 10 min at 18° C., and shaked well for 90 min on a shaker at 37° C.;
(§14) The 384 well plate was removed and allow to achieve room temperature;
(§15) 10 μl ADP-Glo reagent was added into each well, centrifuged at 5000 rpm for 10 min at 18° C., and shaked well for 40 min on a shaker at 25° C. to terminate the reaction;
(§16) 20 μl kinase assay reagent was added into each well, centrifuged at 5000 rpm for 10 min at 18° C., and shaked well for 30 min on a shaker at 25° C.;
(§17) Fluorescence values were read by M1000pro microplate reader.
(§18) The inhibition rate of each compound at each concentration point was calculated according to the following equation, and IC50 value was calculated by curve fitting using GraphPad Prism 5 software.

[2] = target: CDK6/D3 (Homo sapiens (Human), UniProt Q00534); test: CDKs inhibition assay (ADP-Glo Kinase Assay), CDK6; settings: for Ratio IC50 (CDK6)/IC50 (CDK1): smaller value = better selectivity for CDK6
Protocol: (2) Preparation of Test Compound:
as §4, §5
a. Preparation of ATP solution:
as §6, §7, §8, §9, §10, §11, §12, §13, §14, §15, §16, §17, §18

[3] = target: CDK4/D3 (Homo sapiens (Human), UniProt P11802); test: CDKs inhibition assay (ADP-Glo Kinase Assay), CDK4; settings: for selectivity for CDK4/6 (over CDK1) compared with the control compound LY2835219: in words; for Ratio IC50 (CDK4)/IC50 (CDK1): smaller value = better selectivity for CDK4
Protocol: (2) Preparation of Test Compound:
as §4, §5
a. Preparation of ATP solution:
as §6, §7, §8, §9, §10, §11, §12, §13, §14, §15, §16, §17, §18

[4] = test system: human breast cancer cell line MDB-MA-231; test: Proliferation inhibition assay on human breast cancer cell line MDA-MB-231 (DAPI staining, In Cell Analyzer); assay type: cell-based; settings: MDA-MB-231, read-out: IC50 for inhibition of proliferation of human breast cancer cell line MDB-MA-231, 72 h incubation
Protocol: Experimental Preparation:
1. MDA-MB-231 cells were seeded at 4000 cells/100 ul/well to a 96-well plate with black transparent bottom, and cultured overnight at 37° C.;
3. Fixation: the cell plate was taken, medium was removed, and 50 μl of 4% paraformaldehyde was added to each well and fixed 10 min;
4.50 μl 0.1 M glycine was added to neutralize for 10 min;
6. Permeabilization: 50 ul of 0.2% TritonX-100 was added to each well and permeabilized at room temperature for 10 min;
8.5 mg/mL DAPI stock solution was diluted at 1:5000 (final concentration 1 μg/ml) and the cells were stained at room temperature for 20 min.
10. The plate was scanned and analyzed on In cell analyser.

[5] = Pharmacokinetic study in mice (intragastric and intravenous); assay type: in vivo, ICR mice; settings: for AUC: read-out: Area under the curve AUC; for MRT: read-out: Retention time MRT
Protocol: (§1) 2.3 Preparation of Test Compounds
An appropriate amount of sample was weighed, then 0.1% hydroxyethyl cellulose/0.5% Tween 80 was added to final volume to obtain a solution of 0.5 mg/ml for intragastrical administration.
(§2) 2.4 Test Drug Administration
Male ICR mice, 3 for each test compound, were intragastrically administered test drugs at a dose of 5 mg/kg and a drug volume of 10 ml/kg after an overnight fast.
Male ICR mice, 3 for each test compound, were administered by intravenous injection test drugs at a dose of 2 mg/kg and a drug volume of 10 ml/kg after an overnight fast.
(§3) 3. Experimental Operation
The carotid artery of the animal was catheterized and blood sample was removed prior to dosing and at 0.25, 0.5, 1, 2, 4, 8, 12 and 24 hours after dosing for intragastrical administration group. Whole blood was anticoagulated with EDTA-K2, centrifuged to remove the supernatant, and cryopreserved at −20° C. until being analyzed. The carotid artery of the animal was catheterized and blood sample was removed prior to dosing and at 0.083, 0.25, 0.5, 1, 2, 4, 8, 12 and 24 hours after dosing for i.v. administration group. Plasma sample treatment was the same as intragastrical administration group.

[6] = Pharmacokinetic study in rats (intragastric); assay type: in vivo, SD rats; settings: 5 mg/kg
Protocol: as §1, §2, §3
Whole blood was anticoagulated with EDTA-K2, centrifuged to remove the supernatant, and cryopreserved at −20° C. until being analyzed.

[7] = male, ICR, mouse, plasma, iv, i.v. (2 mg/kg)
[8] = male, ICR, mouse, plasma, po, i.g. (5 mg/kg)

SMILES	IC50 [1] [nM]	IC50 [2] [nM]	Ratio IC50 (CDK6)/IC50 (CDK1) [2]	IC50 [3] [nM]	Ratio IC50 (CDK4)/IC50 (CDK1) [3]	IC50 [4] [nM]	Apparent volume of distribution Vz/F ([5]; i.v. (2 mg/kg)) [L/kg]	AUC [5, 7] [ng·h/mL]	MRT [5, 7] [h]	bioavailability ([5]; male, ICR, mouse, plasma, oral, i.g. (5 mg/kg) vs i.v. (2 mg/kg), read-out: Bioavailability F) [%]	Vd/F ([5]; male, ICR, mouse, plasma, po, i.g. (5 mg/kg), read-out: Apparent volume of distribution Vz/F) [L/kg]	AUC [5, 8] [ng·h/mL]	MRT [5, 8] [h]	Area under the curve AUC [6] [ng·h/mL]	selectivity for CDK4/6 (over CDK1) compared with the control compound LY2835219 [3]
CC1(C)Cc2nc3c(F)cc(-c4nc(Nc5ccc(N6CCNCC6)cn5)ncc4F)cc3n2C1 [Example 55, 5-Fluoro-4-(5-fluoro-2,2-dimethyl-2,3-dihydro-1H-benzo[d]pyrrolo[1,2-a]imidazol-7-yl)-N-(5-(piperazin-1-yl)pyridin-2-yl)pyrimidin-2-amine]	6240	–	–	–	–	–	–	–	–	–	–	–	–	–	–
Cc1nc(Nc2ncc(F)c(-c3cc(F)c4nc5n(c4c3)C(C)(C)CC5)n2)ccc1CC1CCNCC1 [Example 30, 5-Fluoro-4-(5-fluoro-1,1-dimethyl-2,3-dihydro-1H-benzo[d]pyrrolo[1,2-a]imidazol-7-yl)-N-(6-methyl-5-(piperidine-4-ylmethyl)pyridin-2-yl)pyrimidin-2-amine]	744	12.2	0.016	1.2	0.002	300	–	–	–	–	–	–	–	–	better selectivity for CDK4/6 than the control compound
C[C@H]1CN(Cc2ccc(Nc3ncc(F)c(-c4cc(F)c5nc6n(c5c4)C(C)(C)CC6)n3)nc2)CCN1C [Example 47, (S)—N-(5-((3,4-Dimethylpiperazin-1-yl)methyl)pyridin-2-yl)-5-fluoro-4-(5-fluoro-1,1-dimethyl-2,3-dihydro-1H-benzo[d]pyrrolo[1,2-a]imidazol-7-yl)pyrimidin-2-amine]	745	3	0.004	2.4	0.003	–	–	–	–	–	–	–	–	–	better selectivity for CDK4/6 than the control compound
CN1CCN(c2ccc(Nc3ncc(F)c(-c4cc(F)c5nc6n(c5c4)C(C)(C)CC6)n3)nc2)CC1 [Example 43, 5-Fluoro-4-(5-fluoro-1,1-dimethyl-2,3-dihydro-1H-benzo[d]pyrrolo[1,2-a]imidazol-7-yl)-N-(5-(4-methylpiperazin-1-yl)pyridin-2-yl)pyrimidin-2-amine]	732	0.3	0.0004	13	0.018	58	–	–	–	–	–	–	–	–	better selectivity for CDK4/6 than the control compound

The next lines start with results.

IC50 [1] [nM]	IC50 [2] [nM]	Ratio IC50 (CDK6)/IC50 (CDK1) [2]	IC50 [3] [nM]	Ratio IC50 (CDK4)/IC50 (CDK1) [3]	IC50 [4] [nM]	Apparent volume of distribution Vz/F ([5]; i.v. (2 mg/kg)) [L/kg]	AUC [5, 7] [ng·h/mL]	MRT [5, 7] [h]	bioavailability ([5]; male, ICR, mouse, plasma, oral, i.g. (5 mg/kg) vs i.v. (2 mg/kg), read-out: Bioavailability F) [%]	Vd/F ([5]; male, ICR, mouse, plasma, po, i.g. (5 mg/kg), read-out: Apparent volume of distribution Vz/F) [L/kg]	AUC [5, 8] [ng·h/mL]	MRT [5, 8] [h]	Area under the curve AUC [6] [ng·h/mL]	SMILES	selectivity for CDK4/6 (over CDK1) compared with the control compound LY2835219 [3]
–	–	–	–	–	–	7.21 ± 1.08	674 ± 82.1	1.64 ± 0.17	45.1	16.1 ± 0.963	756 ± 34	3.08 ± 0.02	3275 ± 731	CCN1CCN(Cc2ccc(Nc3ncc(F)c(-c4cc(F)c5nc(C)n(C(C)C)c5c4)n3)nc2)CC1 [LY2835219]	–
693	–	–	–	–	–	–	–	–	–	–	–	–	–	CC1CCc2nc3c(F)cc(-c4ccnc(Nc5ccc(N6CCNCC6)cn5)n4)cc3n21 (stereo not shown) [Example 72, 4-(5-Fluoro-1-methyl-2,3-dihydro-1H-benzo[d]pyrrolo[1,2-a]imidazol-7-yl)-N-(5-(piperazin-1-yl)pyridin-2-yl)pyrimidin-2-amine]	–
94.8	0.6	0.006	0.28	0.003	174	–	–	–	–	–	–	–	–	CC1CN(c2ccc(Nc3ncc(F)c(-c4cc(F)c5nc6n(c5c4)C(C)(C)CC6)n3)nc2)CC(C)N1 (stereo not shown) [Example 74, N-(5-(3,5-Dimethylpiperazin-1-yl)pyridin-2-yl)-5-fluoro-4-(5-fluoro-1,1-dimethyl-2,3-dihydro-1H-benzo[d]pyrrolo[1,2-a]imidazol-7-yl)pyrimidin-2-amine]	better selectivity for CDK4/6 than the control compound

From patent US10696678B2, “Kinase inhibitor, and preparing method and pharmaceutical use thereof” (GAN & LEE PHARMACEUTICALS, priority 2015, dated 2020)
